Experiment [1] relates to DEFB103 (Human β-defensin 3) mRNA expression. The experiment is described as follows: DEFB103 (human β-defensin 3) mRNA expression in hTCEpi cells, quantitative PCR. Type of experiment: cell-based. Particulars: hTCEpi corneal epithelial cells, treated individually, 24 hours. The protocol: Telomerase immortalized human corneal epithelial cells (hTCEpi cells, passage 40-50) were grown in 6-well plates to 80-90% confluence. Cells were treated with andrographolide, oridonin, isoliquiritigenin (Selleck Chem) individually for 24 hours, at concentrations previously determined to have no effect on cellular viability based on cell morphology, MTT assay and RNA yield. Vehicle control type was based on manufacturers' diluent recommendation and concentration was equivalent to the diluent concentration in the highest treatment (andrographolide and oridonin: DMSO, isoliquiritigenin: ethanol). After 24 hours, media was aspirated from each well and washed with sterile PBS. Total RNA was extracted (GeneJet) and quantified (NanoDrop). Approximately 50 ng of total RNA from each sample was reverse transcribed and quantitative PCR was performed using […] for DEFB103 (ThermoFisher), and GAPDH specific aptamers were used as a control. Expression of DEFB103 was calculated using the 2^-ddCt method. A one-way ANOVA was performed to determine statistical significance with a post-hoc test to determine individual differences.
Separate time course experiments were performed as described above, where data points were taken at 2, 6, 12, and 24 hours.

Experiment [2] deals with human β-defensin 3 (hBD3) peptide. The experiment is described as follows: hBD3 peptide expression in hTCEpi cells, ELISA of supernatant. Format: cell-based. To be noted: increasing concentrations, 48 hours. How it is done: hTCEpi cells were seeded into a 6-well plate coated with FNC material and allowed to grow to 80% confluence. The cells were subsequently treated with increasing concentrations of andrographolide (10, 25, 50, 75, 100 μM), oridonin (1, 2, 5, 10, 15 μM), isoliquiritigenin (5, 10, 15, 25, 50 μM) for 48 hours, and a negative control (vehicle: DMSO or EtOH). After treatment, the supernatant was collected and 100 μl was used to quantify hBD3 peptide concentration (Defensin 3, beta (human) ELISA Kit, Phoenix Pharmaceuticals Inc) and performed in duplicate for each treatment. An hBD3 peptide standard curve was generated from the ELISA kit reagents. The concentration of each experimental well was determined from the linear regression equation generated from the absorbance values of the hBD3 standards. […] It is important to note that the majority of the AMP research fails to detect peptide concentrations from both in vitro and in vivo experiments despite observing upregulation at the mRNA level and the ability to augment antimicrobial activity of cells in either context.
On the technique in general: In an ELISA, binding on a coated surface is turned into a signal by an enzyme label.

For `O=C(/C=C/c1ccc(O)cc1)c1ccc(O)cc1O` [isoliquiritigenin], the “increase of human β-defensin 3 mRNA expression over vehicle control alone” value in experiment [1] is listed as 9-10 fold. The hBD3 peptide expression result in experiment [2] is reported as “below the limit of detection”.
The like results for oridonin were, in that order, 4 fold and “below the limit of detection”.
For `C=C1CC[C@@H]2[C@](C)(CO)[C@H](O)CC[C@@]2(C)[C@@H]1C/C=C1/C(=O)OC[C@H]1O` [andrographolide], in that order: 360 fold and “markedly upregulated in a dose-dependent manner”.
